Source: PubChem BioAssay AID1259407 (Chemical Carcinogenesis Research Information System (CCRIS), 2018)
Calls of active or inactive are those of the source. How the calls were made is not given here.

System: CCRIS mutagenicity, Ames/micronucleus/aberration tests
Experiment: CCRIS mutagenicity studies
[1] = Test System: AMES SALMONELLA TYPHIMURIUM, Strain/Indicator: TA97, Metabolic Activation: NONE, Method: PREINCUBATION
[2] = Test System: AMES SALMONELLA TYPHIMURIUM, Strain/Indicator: TA98, Metabolic Activation: NONE, Method: PREINCUBATION
[3] = Test System: AMES SALMONELLA TYPHIMURIUM, Strain/Indicator: TA100, Metabolic Activation: NONE, Method: PREINCUBATION
[4] = Test System: AMES SALMONELLA TYPHIMURIUM, Strain/Indicator: TA1535, Metabolic Activation: NONE, Method: PREINCUBATION

Compound: Cc1ccc(N)cc1C
- mutagenic call (Test System: AMES SALMONELLA TYPHIMURIUM, Strain/Indicator: TA97, Metabolic Activation: HAMSTER, LIVER, S-9, AROCLOR 1254 (10%), Method: PREINCUBATION): inactive; negative
- mutagenic call [1]: inactive; negative
- mutagenic call (Test System: AMES SALMONELLA TYPHIMURIUM, Strain/Indicator: TA97, Metabolic Activation: RAT, LIVER, S-9, AROCLOR 1254 (10%), Method: PREINCUBATION): inactive; negative
- mutagenic call (Test System: AMES SALMONELLA TYPHIMURIUM, Strain/Indicator: TA98, Metabolic Activation: HAMSTER, LIVER, S-9, AROCLOR 1254 (10%), Method: PREINCUBATION): inactive; negative
- mutagenic call [2]: inactive; negative
- mutagenic call (Test System: AMES SALMONELLA TYPHIMURIUM, Strain/Indicator: TA98, Metabolic Activation: RAT LIVER S-9, PHENOBARBITAL AND BETA-NAPHTHOFLAVONE, Method: PREINCUBATION): inactive; negative
- mutagenic call (Test System: AMES SALMONELLA TYPHIMURIUM, Strain/Indicator: TA98, Metabolic Activation: RAT, LIVER, S-9, AROCLOR 1254 (10%), Method: PREINCUBATION): inactive; negative
- mutagenic call (Test System: AMES SALMONELLA TYPHIMURIUM, Strain/Indicator: TA100, Metabolic Activation: HAMSTER, LIVER, S-9, AROCLOR 1254 (10%), Method: PREINCUBATION): active; positive
- mutagenic call [3]: inactive; negative
- mutagenic call (Test System: AMES SALMONELLA TYPHIMURIUM, Strain/Indicator: TA100, Metabolic Activation: RAT LIVER S-9, PHENOBARBITAL AND BETA-NAPHTHOFLAVONE, Method: PREINCUBATION): inactive; negative
- mutagenic call (Test System: AMES SALMONELLA TYPHIMURIUM, Strain/Indicator: TA100, Metabolic Activation: RAT, LIVER, S-9, AROCLOR 1254 (10%), Method: PREINCUBATION): inactive; negative
- mutagenic call (Test System: AMES SALMONELLA TYPHIMURIUM, Strain/Indicator: TA1535, Metabolic Activation: HAMSTER, LIVER, S-9, AROCLOR 1254 (10%), Method: PREINCUBATION): inactive; negative
- mutagenic call [4]: inactive; negative
- mutagenic call (Test System: AMES SALMONELLA TYPHIMURIUM, Strain/Indicator: TA1535, Metabolic Activation: RAT LIVER S-9, PHENOBARBITAL AND BETA-NAPHTHOFLAVONE, Method: PREINCUBATION): inactive; negative
- mutagenic call (Test System: AMES SALMONELLA TYPHIMURIUM, Strain/Indicator: TA1535, Metabolic Activation: RAT, LIVER, S-9, AROCLOR 1254 (10%), Method: PREINCUBATION): inactive; negative
- mutagenic call (Test System: AMES SALMONELLA TYPHIMURIUM, Strain/Indicator: TA1537, Metabolic Activation: HAMSTER, LIVER, S-9, AROCLOR 1254 (10%), Method: PREINCUBATION): inactive; negative
- mutagenic call (Test System: AMES SALMONELLA TYPHIMURIUM, Strain/Indicator: TA1537, Metabolic Activation: NONE, Method: PREINCUBATION): inactive; negative
- mutagenic call (Test System: AMES SALMONELLA TYPHIMURIUM, Strain/Indicator: TA1537, Metabolic Activation: RAT LIVER S-9, PHENOBARBITAL AND BETA-NAPHTHOFLAVONE, Method: PREINCUBATION): inactive; negative
- mutagenic call (Test System: AMES SALMONELLA TYPHIMURIUM, Strain/Indicator: TA1538, Metabolic Activation: NONE, Method: PREINCUBATION): inactive; negative
- mutagenic call (Test System: AMES SALMONELLA TYPHIMURIUM, Strain/Indicator: TA1538, Metabolic Activation: RAT LIVER S-9, PHENOBARBITAL AND BETA-NAPHTHOFLAVONE, Method: PREINCUBATION): inactive; negative
- mutagenic call (Test System: E.COLI, Strain/Indicator: WP2UVRA, Metabolic Activation: NONE, Method: PREINCUBATION): inactive; negative
- mutagenic call (Test System: E.COLI, Strain/Indicator: WP2UVRA, Metabolic Activation: RAT LIVER S-9, PHENOBARBITAL AND BETA-NAPHTHOFLAVONE, Method: PREINCUBATION): inactive; negative

Compound: CCNc1ccccc1
- mutagenic call (Test System: AMES SALMONELLA TYPHIMURIUM, Strain/Indicator: TA97, Metabolic Activation: HAMSTER, LIVER, S-9, AROCLOR 1254 (10 OR 30%), Method: PREINCUBATION): inactive; negative
- mutagenic call [1]: inactive; negative
- mutagenic call (Test System: AMES SALMONELLA TYPHIMURIUM, Strain/Indicator: TA97, Metabolic Activation: RAT, LIVER, S-9, AROCLOR 1254 (10 OR 30%), Method: PREINCUBATION): inactive; negative
- mutagenic call (Test System: AMES SALMONELLA TYPHIMURIUM, Strain/Indicator: TA98, Metabolic Activation: HAMSTER, LIVER, S-9, AROCLOR 1254 (10 OR 30%), Method: PREINCUBATION): inactive; negative
- mutagenic call [2]: inactive; negative
- mutagenic call (Test System: AMES SALMONELLA TYPHIMURIUM, Strain/Indicator: TA98, Metabolic Activation: RAT, LIVER, S-9, AROCLOR 1254 (10 OR 30%), Method: PREINCUBATION): inactive; negative
- mutagenic call (Test System: AMES SALMONELLA TYPHIMURIUM, Strain/Indicator: TA100, Metabolic Activation: HAMSTER, LIVER, S-9, AROCLOR 1254 (10 OR 30%), Method: PREINCUBATION): inactive; negative
- mutagenic call [3]: inactive; negative
- mutagenic call (Test System: AMES SALMONELLA TYPHIMURIUM, Strain/Indicator: TA100, Metabolic Activation: RAT, LIVER, S-9, AROCLOR 1254 (10 OR 30%), Method: PREINCUBATION): inactive; negative
- mutagenic call (Test System: AMES SALMONELLA TYPHIMURIUM, Strain/Indicator: TA1535, Metabolic Activation: HAMSTER, LIVER, S-9, AROCLOR 1254 (10 OR 30%), Method: PREINCUBATION): inactive; negative
- mutagenic call [4]: inactive; negative
- mutagenic call (Test System: AMES SALMONELLA TYPHIMURIUM, Strain/Indicator: TA1535, Metabolic Activation: RAT, LIVER, S-9, AROCLOR 1254 (10 OR 30%), Method: PREINCUBATION): inactive; negative

Compound: C1=Cc2c(cc3ccc4cccc5ccc2c3c45)CC1
- mutagenic call (Test System: AMES SALMONELLA TYPHIMURIUM, Strain/Indicator: TA98, Metabolic Activation: RAT, LIVER, S-9, AROCLOR 1254, Method: STANDARD PLATE): active; positive
- mutagenic call (Test System: AMES SALMONELLA TYPHIMURIUM, Strain/Indicator: TA1537, Metabolic Activation: RAT, LIVER, S-9, AROCLOR 1254, Method: STANDARD PLATE): active; positive
- mutagenic call (Test System: AMES SALMONELLA TYPHIMURIUM, Strain/Indicator: TA1538, Metabolic Activation: RAT, LIVER, S-9, AROCLOR 1254, Method: STANDARD PLATE): active; positive

Compound: Cc1ccc(N=Nc2ccc(C)c(N)c2)cc1N
- mutagenic call [2]: inactive; negative
- mutagenic call (Test System: AMES SALMONELLA TYPHIMURIUM, Strain/Indicator: TA98, Metabolic Activation: NONE, Method: SUSPENSION/PLATE): inactive; negative
- mutagenic call (Test System: AMES SALMONELLA TYPHIMURIUM, Strain/Indicator: TA98, Metabolic Activation: RAT, LIVER, S-9, PCB, Method: PREINCUBATION): active; positive
- mutagenic call (Test System: AMES SALMONELLA TYPHIMURIUM, Strain/Indicator: TA98, Metabolic Activation: RAT, LIVER, S-9, PHENOBARBITAL AND 5,6-BENZOFLAVONE, Method: SUSPENSION/PLATE): active; positive
- mutagenic call (Test System: AMES SALMONELLA TYPHIMURIUM, Strain/Indicator: TA100, Metabolic Activation: NONE, Method: SUSPENSION/PLATE): inactive; negative
- mutagenic call (Test System: AMES SALMONELLA TYPHIMURIUM, Strain/Indicator: TA100, Metabolic Activation: RAT, LIVER, S-9, PHENOBARBITAL AND 5,6-BENZOFLAVONE, Method: SUSPENSION/PLATE): active; positive
